Results taken from US4254128A, “2-Adamantyl hydrazines and biocidal compositions thereof” (Teva Pharmaceutical Industries Ltd., priority 1977, dated 1981).
Where a name gives a salt, the structure may show the parent alone.

Assays:
albino rats = test: Antiparkinson activity (catalepsy produced by haloperidol); format: in vivo, Male Charles River albino rats; conditions: for antiparkinson activity: summary in words
Description: Male Charles River albino rats, weighing 200-250 g, were used. Catalepsy was produced by haloperidol, 5 mg/kg i.p. The animals were placed with their front paws on a horizontal bar, about 10 cm above the ground, and animals were considered cataleptic if not changing posture for at least 30 sec. Cataleptic animals were injected i.p. with one of the drugs at a dose of 40-80 mg/kg. Catalepsy was estimated again at the intervals indicated.

HSV-1 (Herpes Simplex) = test: Inhibition test on HSV replication; format: cell-based; conditions: Human alphaherpesvirus 1, BSC-1 cells, 10 PFU/cell; for inhibition at 50 µg/mL: 50 μg/ml, read-out: % Inhibition; for inhibition at 100 µg/mL: 100 μg/ml; for inhibition at 25 µg/mL: 25 μg/ml
Excerpt: BSC-1 (Green monkey kidney)
**% Inhibition of control infected for some time with same virus PFV with […]

L. tropica promastigotes = test: Anti leishmania test, promastigotes in vitro; format: cell-based; conditions: 27° C.
Description: (§1) b. promastigotes in Mc Coy's medium in vitro at 27° C.
+++=No viable parasites after 24 hours
++=No viable parasites after 48 hours
+=No viable parasites after 72 hours
±=No viable parasites after 96 hours p2 -=viable parasites after 120 hours.

Leishmania = test: Anti leishmania tests, summary; format: cell-based, L. tropica; conditions: summary in words
Description: (§2) a. amastigotes in peritoneal exudate cells in Mc Coy's medium in vitro at 37° C.
as §1

[1] = Toxic limit in the HSV replication test; conditions: monkey, bsc-1 cells
L. tropica amastigotes = test: Anti leishmania test, amastigotes in peritoneal exudate cells in vitro; format: cell-based; conditions: 37° C.
Description: as §2
+++=clearance of all parasites in 24 hours
++=clearance of all parasites in 48 hours
+=clearance of all parasites in 72 hours
±=Partial clearance of parasites in 72 hours or more
-=No activity against parasites.

[2] = system: 4 mycoplasma (M. gallisepticum, M. capricolum, M. hominis, A. laidlawii); test: organism not typed; format: cell-based; conditions: read-out: 50% inhibition of growth
albino mice [3] = test: Stereotyped behaviour in mice; format: in vivo, Male ICR albino mice; set-up: stereotyped behaviour score / Total Score / Mean Score: scale not given here; conditions: for stereotyped behaviour score / Mean Score / Total Score: 50 mg/kg i.p.; for Mean Score: mean of 4 mice; for stereotyped behaviour activity: summary in words
Description: Male ICR albino mice weighing 25-30 g were put in cages with a metal grid floor, 4 in each cage. Drugs were injected intraperitoneally and stereotyped behaviour (sniffing, biting, repetitive head movement) was evaluated every 30 min.

albino mice [4] = test: Stereotyped behaviour in mice; format: in vivo, Male ICR albino mice; set-up: scale not given here; conditions: 50 mg/kg i.p.
[5] = system: Leptospira canicola Kipod 146; test: Anti leptospiral activity (minimal inhibition concentration); format: cell-based; conditions: for MIC: Leptospira interrogans, KIPOD146, 240 h; for anti leptospiral activity: summary in words
Description: The tests were carried out under the following conditions:
Leptospira: Leptospira canicola Kipod 146
Inoculum: 1-10^5 cells/ml
Incubation time: 10 days, 28° C.
Evaluation: Direct count in dark field microscopy after 4,7 and 10 days.
2 Minimal+0.5% albumin (Pentex)
3 Korthof rich medium with 8% serum.
4 Korthof rich medium with 2% serum.

O=C(O)CNNC1C2CC3CC(C2)CC1C3 (stereo not shown) [Example 36, [2-(2'-adamantyl)hydrazino]acetic acid hydrochloride]
anticataleptic effect (albino rats; 80 mg/kg i.p., rat 1): 2/4
anticataleptic effect (albino rats; 80 mg/kg i.p., rat 2): 1/4
anticataleptic effect (albino rats; 80 mg/kg i.p., rat 3): 3/4
anticataleptic effect (albino rats; 80 mg/kg i.p., rat 4): 2/4
anticataleptic effect (albino rats; 80 mg/kg i.p., rat 5): 0/4
antiparkinson activity (albino rats): active
inhibition at 50 µg/mL (HSV-1 (Herpes Simplex)): 0%
inhibition at 100 µg/mL (HSV-1 (Herpes Simplex)): 0%
inhibition at 200 µg/mL (HSV-1 (Herpes Simplex); 200 μg/ml): 98%
Leishmania promastigote activity score (L. tropica promastigotes; 100 μg): ++ (No viable parasites after 48 hours)
activity against Leishmania (Leishmania): active
MNTC [1]: 200 µg/mL
Leishmania amastigote activity score (L. tropica amastigotes; 100 μg): ++ (clearance of all parasites in 48 hours)

C1CCN(NC2C3CC4CC(C3)CC2C4)CC1 (stereo not shown) [Example 10, 1-(2'-Adamantylamino)piperidine hydrochloride]
Mean maximal effect (albino rats; 80 mg/kg i.p., mean of 5 rats): 1/4
anticataleptic effect (albino rats; 80 mg/kg i.p., rat 1): 0/4
anticataleptic effect (albino rats; 80 mg/kg i.p., rat 2): 1/4
anticataleptic effect (albino rats; 80 mg/kg i.p., rat 3): 0/4
anticataleptic effect (albino rats; 80 mg/kg i.p., rat 4): 1/4
anticataleptic effect (albino rats; 80 mg/kg i.p., rat 5): 3/4
antiparkinson activity (albino rats): active
inhibition at 10 µg/mL (HSV-1 (Herpes Simplex); 10 μg/ml): 50%
inhibition at 25 µg/mL (HSV-1 (Herpes Simplex)): 40%
inhibition at 50 µg/mL (HSV-1 (Herpes Simplex)): 96%
MNTC [1]: 50 µg/mL
IC50 [2]: 5 to 30 µg/mL
stereotyped behaviour score (albino mice [3]; 0 min, mouse 1): 0
stereotyped behaviour score (albino mice [3]; 0 min, mouse 2): 0
stereotyped behaviour score (albino mice [3]; 0 min, mouse 3): 0
stereotyped behaviour score (albino mice [3]; 0 min, mouse 4): 0
stereotyped behaviour score (albino mice [3]; 30 min, mouse 1): 1
stereotyped behaviour score (albino mice [3]; 30 min, mouse 2): 1
stereotyped behaviour score (albino mice [3]; 30 min, mouse 3): 1
stereotyped behaviour score (albino mice [3]; 30 min, mouse 4): 1
stereotyped behaviour score (albino mice [3]; 45 min, mouse 3): 1
stereotyped behaviour score (albino mice [3]; 45 min, mouse 4): 0
stereotyped behaviour score (albino mice [3]; 60 min, mouse 1): 1
stereotyped behaviour score (albino mice [3]; 60 min, mouse 2): 1
stereotyped behaviour score (albino mice [3]; 60 min, mouse 3): 1
stereotyped behaviour score (albino mice [3]; 60 min, mouse 4): 1
stereotyped behaviour score (albino mice [3]; 90 min, mouse 1): 1
stereotyped behaviour score (albino mice [3]; 90 min, mouse 2): 1
stereotyped behaviour score (albino mice [3]; 90 min, mouse 3): 1
stereotyped behaviour score (albino mice [3]; 90 min, mouse 4): 1
stereotyped behaviour score (albino mice [3]; 120 min, mouse 1): 0
stereotyped behaviour score (albino mice [3]; 120 min, mouse 2): 0
stereotyped behaviour score (albino mice [3]; 120 min, mouse 3): 0
stereotyped behaviour score (albino mice [3]; 120 min, mouse 4): 0
stereotyped behaviour score (albino mice [3]; 135 min, mouse 1): 0
stereotyped behaviour score (albino mice [3]; 135 min, mouse 2): 0
stereotyped behaviour score (albino mice [3]; 150 min, mouse 1): 0
stereotyped behaviour score (albino mice [3]; 150 min, mouse 2): 0
stereotyped behaviour score (albino mice [3]; 150 min, mouse 3): 0
stereotyped behaviour score (albino mice [3]; 150 min, mouse 4): 0
stereotyped behaviour score (albino mice [3]; 180 min, mouse 1): 1
stereotyped behaviour score (albino mice [3]; 180 min, mouse 2): 1
stereotyped behaviour score (albino mice [3]; 180 min, mouse 3): 0
stereotyped behaviour score (albino mice [3]; 180 min, mouse 4): 0
stereotyped behaviour score (albino mice [3]; 210 min, mouse 1): 1
stereotyped behaviour score (albino mice [3]; 210 min, mouse 2): 0
stereotyped behaviour score (albino mice [3]; 210 min, mouse 3): 0
stereotyped behaviour score (albino mice [3]; 210 min, mouse 4): 0
stereotyped behaviour score (albino mice [3]; 240 min, mouse 1): 0
stereotyped behaviour score (albino mice [3]; 240 min, mouse 2): 0
stereotyped behaviour score (albino mice [3]; 240 min, mouse 3): 0
stereotyped behaviour score (albino mice [3]; 240 min, mouse 4): 0
Mean Score (albino mice [3]): 4.75
Total Score (albino mice [3]; mouse 1): 6
Total Score (albino mice [3]; mouse 2): 6
Total Score (albino mice [3]; mouse 3): 4
Total Score (albino mice [3]; mouse 4): 3
stereotyped behaviour activity (albino mice [3]): active
stereotyped behaviour score (albino mice [4]; 45 min, mouse 1): 1
stereotyped behaviour score (albino mice [4]; 45 min, mouse 2): 2
stereotyped behaviour score (albino mice [4]; 135 min, mouse 3): 0
stereotyped behaviour score (albino mice [4]; 135 min, mouse 4): 0
MIC ([5]; Korthof + 8% serum): 100 µg/mL
MIC ([5]; minimal medium): 12.5 µg/mL
anti leptospiral activity [5]: active

CN(N)C1C2CC3CC(C2)CC1C3 (stereo not shown) [Example 27, 1-(2'-Adamantyl)-1-methylhydrazine hydrochloride]
anticataleptic effect (albino rats; 80 mg/kg i.p., rat 1): 3/4
anticataleptic effect (albino rats; 80 mg/kg i.p., rat 2): 1/4
anticataleptic effect (albino rats; 80 mg/kg i.p., rat 3): 2/4
anticataleptic effect (albino rats; 80 mg/kg i.p., rat 4): 3/4
anticataleptic effect (albino rats; 80 mg/kg i.p., rat 5): 4/4
antiparkinson activity (albino rats): active
inhibition at 25 µg/mL (HSV-1 (Herpes Simplex)): 46%
inhibition at 50 µg/mL (HSV-1 (Herpes Simplex)): 81%
inhibition at 100 µg/mL (HSV-1 (Herpes Simplex)): 100%
Leishmania promastigote activity score (L. tropica promastigotes; 100 μg): +++ (No viable parasites after 24 hours)
activity against Leishmania (Leishmania): active
MNTC [1]: 100 µg/mL
Leishmania amastigote activity score (L. tropica amastigotes; 10 μg): ± (Partial clearance of parasites in 72 hours or more)
Leishmania amastigote activity score (L. tropica amastigotes; 100 μg): ++ (clearance of all parasites in 48 hours)
stereotyped behaviour score (albino mice [3]; 0 min, mouse 1): 0
stereotyped behaviour score (albino mice [3]; 0 min, mouse 2): 0
stereotyped behaviour score (albino mice [3]; 0 min, mouse 3): 0
stereotyped behaviour score (albino mice [3]; 0 min, mouse 4): 0
stereotyped behaviour score (albino mice [3]; 30 min, mouse 1): 0
stereotyped behaviour score (albino mice [3]; 30 min, mouse 2): 0
stereotyped behaviour score (albino mice [3]; 30 min, mouse 3): 1
stereotyped behaviour score (albino mice [3]; 30 min, mouse 4): 0
stereotyped behaviour score (albino mice [3]; 45 min, mouse 3): 1
stereotyped behaviour score (albino mice [3]; 45 min, mouse 4): 1
stereotyped behaviour score (albino mice [3]; 60 min, mouse 1): 2
stereotyped behaviour score (albino mice [3]; 60 min, mouse 2): 2
stereotyped behaviour score (albino mice [3]; 60 min, mouse 3): 2
stereotyped behaviour score (albino mice [3]; 60 min, mouse 4): 2
stereotyped behaviour score (albino mice [3]; 90 min, mouse 1): 2
stereotyped behaviour score (albino mice [3]; 90 min, mouse 2): 2
stereotyped behaviour score (albino mice [3]; 90 min, mouse 3): 2
stereotyped behaviour score (albino mice [3]; 90 min, mouse 4): 2
stereotyped behaviour score (albino mice [3]; 120 min, mouse 1): 1
stereotyped behaviour score (albino mice [3]; 120 min, mouse 2): 1
stereotyped behaviour score (albino mice [3]; 120 min, mouse 3): 0
stereotyped behaviour score (albino mice [3]; 120 min, mouse 4): 0
stereotyped behaviour score (albino mice [3]; 135 min, mouse 1): 1
stereotyped behaviour score (albino mice [3]; 135 min, mouse 2): 1
stereotyped behaviour score (albino mice [3]; 150 min, mouse 1): 1
stereotyped behaviour score (albino mice [3]; 150 min, mouse 2): 1
stereotyped behaviour score (albino mice [3]; 150 min, mouse 3): 0
stereotyped behaviour score (albino mice [3]; 150 min, mouse 4): 0
stereotyped behaviour score (albino mice [3]; 180 min, mouse 1): 0
stereotyped behaviour score (albino mice [3]; 180 min, mouse 2): 0
stereotyped behaviour score (albino mice [3]; 180 min, mouse 3): 0
stereotyped behaviour score (albino mice [3]; 180 min, mouse 4): 0
stereotyped behaviour score (albino mice [3]; 210 min, mouse 1): 0
stereotyped behaviour score (albino mice [3]; 210 min, mouse 2): 1
stereotyped behaviour score (albino mice [3]; 210 min, mouse 3): 0
stereotyped behaviour score (albino mice [3]; 210 min, mouse 4): 0
stereotyped behaviour score (albino mice [3]; 240 min, mouse 1): 0
stereotyped behaviour score (albino mice [3]; 240 min, mouse 2): 0
stereotyped behaviour score (albino mice [3]; 240 min, mouse 3): 0
stereotyped behaviour score (albino mice [3]; 240 min, mouse 4): 0
Mean Score (albino mice [3]): 6.5
Total Score (albino mice [3]; mouse 1): 7
Total Score (albino mice [3]; mouse 2): 9
Total Score (albino mice [3]; mouse 3): 6
Total Score (albino mice [3]; mouse 4): 5
stereotyped behaviour activity (albino mice [3]): active
stereotyped behaviour score (albino mice [4]; 45 min, mouse 1): 0
stereotyped behaviour score (albino mice [4]; 45 min, mouse 2): 1
stereotyped behaviour score (albino mice [4]; 135 min, mouse 3): 0
stereotyped behaviour score (albino mice [4]; 135 min, mouse 4): 0
MIC ([5]; Korthof + 8% serum): 50 µg/mL
MIC ([5]; minimal + Pentex (0.5% albumin)): 6.25 µg/mL
MIC ([5]; minimal medium): 3.12 µg/mL
anti leptospiral activity [5]: active

c1ccc(CN2CCN(NC3C4CC5CC(C4)CC3C5)CC2)cc1 (stereo not shown) [Example 16, 1-(2'-Adamantylamino)-4-benzylpiperazine dihydrochloridemonohydrate]
Leishmania promastigote activity score (L. tropica promastigotes; 10 μg): +++ (No viable parasites after 24 hours)
Leishmania promastigote activity score (L. tropica promastigotes; 100 μg): +++ (No viable parasites after 24 hours)
activity against Leishmania (Leishmania): active
IC50 [2]: 5 to 30 µg/mL

c1ccc(CCNNC2C3CC4CC(C3)CC2C4)cc1 (stereo not shown) [Example 2, 1-(2'-Adamantyl)-2-phenethylhydrazine hydrochloride]
IC50 [2]: 5 to 30 µg/mL
